{"source": "paper PMC4859512", "about": "“Polyamino-Isoprenic Derivatives Block Intrinsic Resistance of P. aeruginosa to Doxycycline and Chloramphenicol In Vitro” (PLoS ONE, 2016)", "key": {"[1]": {"system": "P. aeruginosa PA0-7H (Mex EF overproducer)", "assay": "Antibiotic susceptibility testing (broth micro-dilution MIC), strain PA0-7H", "format": "cell-based, Pseudomonas aeruginosa"}, "[2]": {"system": "CHO-K1 cells", "assay": "cells", "format": "cell-based, Chinese Hamster", "settings": "Cricetulus griseus, CHO-K1; WST1, 24 h; mean +/- SD, 2 independent experiments", "experimental": "CHO-K1 cells (ATCC-LGC Standards Sarl (Molsheim, France) and human fibroblasts (Clinisciences, Paris, France) were maintained in McCoy’s 5A and DMEM media, respectively, supplemented with 10% bovine calf serum, 2 mM glutamine, and 100 U/mL/10 μg/mL penicillin/streptomycin. They were incubated at 37°C in a humidified atmosphere containing 5% CO2. The cell lines were seeded in 96-well plates and incubated overnight. The cytotoxic effects of compounds were assessed by the colorimetric WST-1 cell proliferation assay as previously described. Briefly, a range of compound concentrations from 30 μM to 1200 μM was added to triplicate cultures, and cells were incubated at 37°C for 24 h. At the end of the incubation period, cultures were washed three times with phosphate buffer saline (PBS) and incubated in fresh culture medium containing 10% WST-1 for an additional 30 min. Cell viability was evaluated by measuring the WST-1 absorbance at 450 nm in a microplate spectrophotometer MRX1 II (Dynex technologies, Chantilly, VA, USA). The Inhibitory Concentration 50% (IC50) was chosen to evaluate the cytotoxicity of compounds. IC50 was defined as the concentration of a compound that induced a 50% decrease in viable cells. Doxorubicin was used as a positive control."}, "[3]": {"system": "cytoplasmic membrane of PA01", "assay": "Inner membrane depolarization assay (Disc3(5) fluorescence)", "format": "cell-based, Pseudomonas aeruginosa", "settings": "PA01, Disc3(5) fluorescence", "experimental": "Inner membrane depolarization assay\nCells were grown to a mid-\nlogarithmic phase, recovered by centrifugation (3000 X g for 20 min) and washed in 5 mM 4-(2-\nhydroxyethyl)piperazine-1-ethanesulfonic acid (HEPES, pH 7.0) containing 10 mM EDTA. After 5\nmin incubation at room temperature, cells were recovered by centrifugation (3000 X g for 20\nmin), and resuspended in 5 mM HEPES (pH 7.0) containing 50 mM glucose, OD600 nm was\nadjusted to 0.29. Five µl of a 160 µM suspension of [3,3’-Dipropylthiadicarbocyanine iodide]\n(Disc3(5)) were added after 90 sec to 100 µl of a bacterial suspension, in a 96-well Greiner black\nmicroplate, to reach 8 µM final concentration. After a 16.5 min incubation period allowing\nincorporation of the dye into the polarized membrane, 10 µl of the appropriate compound\nconcentration were added. Fluorescence was monitored every 30 sec on an Infinite M200\nmicroplate reader (Tecan; excitation wavelength 622nm and emission wavelength 690nm).\nAssays were performed in two independent experiments and statistically significance was\nassessed using a student’s t-test. A p-value ≤ 0.05 was considered significant.\n(1 picture or pasted object on this page, not shown here)"}, "[4]": {"system": "P. aeruginosa PA01 (wt)", "assay": "Antibiotic susceptibility testing (broth micro-dilution MIC), strain PA01", "format": "cell-based, Pseudomonas aeruginosa"}, "[5]": {"system": "P. aeruginosa PA01 reference strain", "assay": "High-content screening in the presence of doxycycline", "settings": "compound 10 μM, doxycycline 4 mg/L", "description": "The screening was carried out in 96-well microtiter plates using MHBII, in a final volume of 200 μL. […] The bacterial inoculum of 5×10^5 CFU/mL was prepared from an overnight culture. In addition to the polyamino-isoprenic compounds, each plate contained PAßN, CCCP, CTAB, polymyxin-B and benzalkonium chloride as control molecules. Plates were incubated at 37°C under aerobic conditions for 18 hours. Plates were read at 600 nm on an Infinite M200 Pro plate reader (Tecan).\nA series of 60 compounds, which were described [18], were tested at a concentration of 10 μM in combination with a sub-inhibitory concentration of doxycycline against the reference strain of P. aeruginosa PA01. In parallel, we evaluated the intrinsic antimicrobial activity of these compounds alone to allow the selection of only doxycycline adjuvants."}, "[6]": {"system": "P. aeruginosa FB1 (Mex B deleted)", "assay": "Antibiotic susceptibility testing (broth micro-dilution MIC), strain FB1", "format": "cell-based", "settings": "Pseudomonas aeruginosa, read-out: Minimal Inhibitory Concentration", "experimental": "Experiments were performed on the BAC-SCREEN platform of the UMR-MD1, with a Freedom EVO 150 liquid handling system (Tecan, Lyon, France)."}, "[7]": {"system": "P. aeruginosa strains", "assay": "Synergy assays of compound 3 with representative anti-pseudomonal agents (summary in words, all strains)", "format": "cell-based, Pseudomonas aeruginosa", "experimental": "We concluded that compound 3 was the best compound and suitable for a more detailed study. The same experiment was performed using chloramphenicol (4 mg/L) in combination with 3 (10 μM final concentration). Amongst the 20 clinical isolates, the growth of 15 (75%) was impaired, while 5 (25%) were resistant (data not shown). These experiments were performed to study the effect of our compounds on the natural resistance of P. aeruginosa. In addition, we were wondering if compound 3 could also increase susceptibility to other antibiotic families including ß-Lactams, fluoroquinolones and aminoglycosides, that are representative of the main classes of anti-pseudomonal agents. Experiments were performed with the ß-lactams ceftazidime and ticarcillin and ciprofloxacin and amikacin. […]. […] To better characterize compound 3, we first searched for the minimum concentration of compound that allowed killing of bacteria by doxycycline, and PAßN was used as the reference molecule."}, "[8]": {"settings": "Pseudomonas aeruginosa, read-out: Minimal Inhibitory Concentration"}}, "note": "Where “and” joins values, the source holds several entries; their conditions need not be identical. Equal entries are not always repeated."}
{"smiles": "CC(C)=CCCC(C)=CCCC(C)=CCNCCCNCCCCNCCCN", "note": "[Compound 3]", "values": [{"measurement": "decrease of MIC of ciprofloxacin", "setting": "[1]; PA0-7H (overproduces MexEF), compound 10 µM", "value": 4, "unit": "times"}, {"measurement": "MIC of Amikacin in the presence of the compound", "setting": "[1]; PA0-7H, compound 10µM", "value": 64, "unit": "µg/mL"}, {"measurement": "MIC of Ceftazidime in the presence of the compound", "setting": "[1]; PA0-7H, compound 10µM", "value": 1, "unit": "µg/mL"}, {"measurement": "MIC of Ciprofloxacin in the presence of the compound", "setting": "[1]; PA0-7H, compound 10µM", "value": 1, "unit": "µg/mL"}, {"measurement": "MIC of Ticarcillin in the presence of the compound", "setting": "[1]; PA0-7H, compound 10µM", "value": 4, "unit": "µg/mL"}, {"measurement": "MIC", "setting": "[1]; [8]", "value": "25 µg/mL and 62.5 µM"}, {"measurement": "IC50", "setting": "[2]", "value": "320 ± 41.2", "unit": "µM"}, {"measurement": "cytoplasmic membrane depolarization", "setting": "[3]", "value": "dissipated the proton motive force"}, {"measurement": "MIC of Amikacin in the presence of the compound", "setting": "[4]; PA01, compound 10µM", "value": 64, "unit": "µg/mL"}, {"measurement": "MIC of Ceftazidime in the presence of the compound", "setting": "[4]; PA01, compound 10µM", "value": 2, "unit": "µg/mL"}, {"measurement": "MIC of Ciprofloxacin in the presence of the compound", "setting": "[4]; PA01, compound 10µM", "value": 0.125, "unit": "µg/mL"}, {"measurement": "MIC of Ticarcillin in the presence of the compound", "setting": "[4]; PA01, compound 10µM", "value": 16, "unit": "µg/mL"}, {"measurement": "MIC", "setting": "[4]; [8]", "value": "25 µg/mL and 62.5 µM"}, {"measurement": "bacterial growth in combination with doxycycline", "setting": "[5]", "value": "completely abolished bacterial growth"}, {"measurement": "MIC", "setting": "[6]", "value": "25 µg/mL and 62.5 µM"}, {"measurement": "synergy with ciprofloxacin", "setting": "[7]; all strains with the exception of PA0-7H", "value": "No synergistic effect"}, {"measurement": "effect of combination with ticarcillin", "setting": "[7]; all the strains", "value": "slight effect"}, {"measurement": "effect on the MIC of amikacin", "setting": "[7]; every strains", "value": "surprising increase of the MIC"}]}
